Laboratory results taken from the NIST ThermoML archive (doi:10.1016/j.jct.2016.03.029).

How the values were obtained:
[1] = xn = mol fraction of the nth substance listed; settings: 100 kPa, Liquid, x2 = 0; for speed of sound: Frequency=3 MHz, Sing-around technique in a fixed-path interferometer; for mass density: Vibrating tube method
[2] = refractive index (Na D-line) (dimensionless); xn = mol fraction of the nth substance listed; settings: 100 kPa, Liquid, Standard Abbe refractometry, x2 = 0
[3] = 100 kPa, Liquid; for speed of sound: Frequency=3 MHz, Sing-around technique in a fixed-path interferometer; for mass density: Vibrating tube method
[4] = refractive index (Na D-line) (dimensionless); settings: 100 kPa, Liquid, Standard Abbe refractometry

CN1CCCC1=O [N-methylpyrrolidone] + CCCC[n+]1ccn(C)c1.O=S(=O)([N-]S(=O)(=O)C(F)(F)F)C(F)(F)F
Settings	mass density, [1] [kg/m3]	refractive index, [2]	speed of sound, [1] [m/s]
298.15 K	1027.1	1.46838	1543.8
303.15 K	1022.64	1.46626	1524.3
308.15 K	1018.18	1.46412	1505
313.15 K	1013.72	1.46199	1485.7
318.15 K	1009.25	1.45983	1466.7
323.15 K	1004.79	1.45771	1447.8

CCCC[n+]1ccn(C)c1.O=S(=O)([N-]S(=O)(=O)C(F)(F)F)C(F)(F)F
Settings	mass density, [3] [kg/m3]	refractive index, [4]	speed of sound, [3] [m/s]
298.15 K	1433.72	1.42671	1227.9
303.15 K	1428.92	1.42522	1216.8
308.15 K	1424.13	1.42373	1205.8
313.15 K	1419.36	1.42225	1195
318.15 K	1414.61	1.42076	1184.2
323.15 K	1409.88	1.41923	1173.6

CN1CCCC1=O [N-methylpyrrolidone]
Settings	mass density, [3] [kg/m3]	refractive index, [4]	speed of sound, [3] [m/s]
298.15 K	1027.1	1.46838	1543.8
303.15 K	1022.64	1.46626	1524.3
308.15 K	1018.18	1.46412	1505
313.15 K	1013.72	1.46199	1485.7
318.15 K	1009.25	1.45983	1466.7
323.15 K	1004.79	1.45771	1447.8
